Laboratory results published in the supplement of paper PMC10307832.

Assays:
Experiment in all cases: relative viability (nuclei count vs DMSO), 5 days (fraction); higher = more cells survive
AT-7519 + Palbociclib = compound: O=C(NC1CCNCC1)c1n[nH]cc1NC(=O)c1c(Cl)cccc1Cl [AT-7519] + CC(=O)c1c(C)c2cnc(Nc3ccc(N4CCNCC4)cn3)nc2n(C2CCCC2)c1=O [Palbociclib] (partner 0.5 µM)
How it was run: (§1)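 Lung cancer cell lines, seeded in 1536-well plates, were treated the following day by pin tool with a single drug or with five library-drug doses (not always all listed) in √10 steps on top of a fixed anchor-drug dose. Cells were fixed and nuclei stained in one step after 5 days, and nuclei were counted. Relative viability is the nuclei count for treated wells divided by that for vehicle wells, reported as medians of duplicate plates.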

[1] = compound: C1=CC2=C(C=C(C(=C2N=C1)O)N=NC3=CC4=C(C=C3)C=C(C=C4)S(=O)(=O)O)S(=O)(=O)O + N=C(N)NC(=N)NCCc1ccccc1 [Phenformin] (partner 250 µM)
How it was run: as §1

AT-7519 + Luminespib = compound: O=C(NC1CCNCC1)c1n[nH]cc1NC(=O)c1c(Cl)cccc1Cl [AT-7519] + CCNC(=O)c1noc(-c2cc(C(C)C)c(O)cc2O)c1-c1ccc(CN2CCOCC2)cc1 [Luminespib] (partner 0.01 µM)
How it was run: as §1

AT-7519 + OSI-027 = compound: O=C(NC1CCNCC1)c1n[nH]cc1NC(=O)c1c(Cl)cccc1Cl [AT-7519] + COc1cccc2cc(-c3nc([C@H]4CC[C@H](C(=O)O)CC4)n4ncnc(N)c34)[nH]c12 [OSI-027] (partner 0.5 µM)
How it was run: as §1

**Q.** UMC-11 was tested. Which relative viability (AT-7519 + Palbociclib; first compound 0.01 µM) did it give?
**A.** 0.319

**Q.** What about the relative viability (AT-7519 + Palbociclib; first compound 0.03162 µM) of the same cell line?
**A.** 0.328

**Q.** And the relative viability (AT-7519 + Palbociclib; first compound 0.3162 µM)?
**A.** 0.283

**Q.** What about the relative viability (AT-7519 + Palbociclib; first compound 1 µM) of the same cell line?
**A.** 0.25

**Q.** What about the relative viability ([1]; first compound 0.08 µM) of the same cell line?
**A.** 0.326

**Q.** And the relative viability ([1]; first compound 0.253 µM)?
**A.** 0.31

**Q.** What about the relative viability ([1]; first compound 0.8 µM) of the same cell line?
**A.** 0.336

**Q.** And the relative viability ([1]; first compound 2.53 µM)?
**A.** 0.345

**Q.** And the relative viability ([1]; first compound 8 µM)?
**A.** 0.338

**Q.** What about the relative viability (AT-7519 + Luminespib; first compound 0.01 µM) of the same cell line?
**A.** 1.06

**Q.** What about the relative viability (AT-7519 + Luminespib; first compound 0.03162 µM) of the same cell line?
**A.** 0.98

**Q.** And the relative viability (AT-7519 + Luminespib; first compound 0.3162 µM)?
**A.** 0.716

**Q.** What about the relative viability (AT-7519 + Luminespib; first compound 1 µM) of the same cell line?
**A.** 0.394

**Q.** What about the relative viability (AT-7519 + OSI-027; first compound 0.01 µM) of the same cell line?
**A.** 0.442

**Q.** And the relative viability (AT-7519 + OSI-027; first compound 0.03162 µM)?
**A.** 0.432

**Q.** What about the relative viability (AT-7519 + OSI-027; first compound 0.3162 µM) of the same cell line?
**A.** 0.404

**Q.** What about the relative viability (AT-7519 + OSI-027; first compound 1 µM) of the same cell line?
**A.** 0.27
